# Activity calls are given as the source filed them. The calls are words filed in the database; no cut-off is given here.
# Experiments:
# Type in all cases: functional, cell-based
# [1] = tested on: HepG2; assay: Cytotoxicity against human HepG2 cells assessed as inhibition of cell growth by MTT assay
# [2] = tested on: Hep 3B2; assay: Cytotoxicity against human Hep3B cells assessed as inhibition of cell growth by MTT assay
# [3] = tested on: HepG2; assay: Induction of apoptosis in human HepG2 cells assessed as membrane blebbing at 1 to 4 uM after 48 hrs by phase contrast microscopic analysis; settings: dose 1-4 µM
# [4] = tested on: Hep 3B2; assay: Induction of apoptosis in human Hep3B cells assessed as membrane blebbing at 1 to 4 uM after 48 hrs by phase contrast microscopic analysis; settings: dose 1-4 µM
# [5] = tested on: HepG2; assay: Induction of apoptosis in human HepG2 cells assessed as cellular shrinkage at 1 to 4 uM after 48 hrs by phase contrast microscopic analysis; settings: dose 1-4 µM
# [6] = tested on: Hep 3B2; assay: Induction of apoptosis in human Hep3B cells assessed as cellular shrinkage at 1 to 4 uM after 48 hrs by phase contrast microscopic analysis; settings: dose 1-4 µM
# [7] = tested on: HepG2; assay: Induction of apoptosis in human HepG2 cells at 1 to 4 uM after 48 hrs by Hoechst 33258 staining based assay; settings: dose 1-4 µM
# [8] = tested on: Hep 3B2; assay: Induction of apoptosis in human Hep3B cells at 1 to 4 uM after 48 hrs by Hoechst 33258 staining based assay; settings: dose 1-4 µM
# [9] = tested on: HepG2; assay: Induction of mitochondrial membrane potential loss in human HepG2 cells by JC-1 staining based fluorescence assay
# [10] = tested on: Hep 3B2; assay: Induction of mitochondrial membrane potential loss in human Hep3B cells by JC-1 staining based fluorescence assay
SMILES,IC50 [1] [µM],IC50 [2] [µM],other results
C=C1C[C@H](OC(=O)C(=C)C)[C@H]2C(=C)C(=O)O[C@@H]2[C@@H]2O[C@@](OC)(C1)C[C@@]2(C)O,8.1,2.4,–
C/C=C(\C)C(=O)O[C@H]1C/C(C)=C\[C@@]2(OC)C=C(C)[C@@H](O2)[C@H]2OC(=O)[C@@H](CO)[C@@H]21,> 10,> 10,–
C=C1C(=O)O[C@H]2[C@H]1[C@@H](OC(=O)/C(C)=C/C)C/C(C)=C\[C@@]1(c3cccc(O)c3O)C=C(C)[C@H]2O1,4.5,5.8,–
C=C(C)C(=O)O[C@H]1C/C(C)=C\[C@@]2(c3cccc(O)c3O)C=C(C)[C@@H](O2)[C@H]2OC(=O)C(=C)[C@@H]21,4.3,5.6,–
C=C1C[C@H](OC(=O)/C(C)=C/C)[C@H]2C(=C)C(=O)O[C@@H]2[C@@H]2O[C@@](OC)(C1)C[C@@]2(C)O,9.8,9.5,–
C=C(C)C(=O)O[C@H]1C/C(C)=C\[C@@]2(OC)C=C(C)[C@@H](O2)[C@H]2OC(=O)C(=C)[C@@H]21,3.8,8.5,–
C=C1C[C@H](OC(=O)C(=C)C)[C@H]2C(=C)C(=O)O[C@@H]2[C@@H]2O[C@](OC)(C=C2C)C1,2.2,2.4,Activity [3]: Active; Activity [4]: Active; Activity [5]: Active; Activity [6]: Active; Activity [7]: Active; Activity [8]: Active; Activity [9]: Active; Activity [10]: Active
C=C1C[C@H](OC(=O)/C(C)=C/C)[C@H]2C(=C)C(=O)O[C@@H]2[C@@H]2O[C@](OC)(C=C2C)C1,3.8,8.5,–
C=C(C)C(=O)O[C@H]1C/C(C)=C\[C@@]2(OC)C=C(C)[C@@H](O2)[C@H]2OC(=O)[C@@H](COC)[C@@H]21,> 10,> 10,–
C/C=C(/C)C(=O)O[C@H]1C/C(C)=C\[C@@]2(OC)C=C(C)[C@@H](O2)[C@H]2OC(=O)[C@@H](COC)[C@@H]21,> 10,> 10,–
C=C1C[C@H](OC(=O)/C(C)=C/C)[C@H]2C(=C)C(=O)O[C@@H]2[C@@H]2O[C@@](O)(C1)C[C@@]2(C)O,8.7,3.1,–
C=C1C(=O)O[C@H]2[C@H]1[C@@H](OC(=O)/C(C)=C\C)C/C(C)=C\[C@@]1(OC)C=C(C)[C@H]2O1,3.5,3.8,–
C=C1C(=O)O[C@H]2[C@H]1[C@@H](OC(=O)/C(C)=C/C)C/C(C)=C\[C@@]1(c3ccc(O)c(O)c3)C=C(C)[C@H]2O1,3,3.6,–
C=C1C[C@H](OC(=O)C(=C)C)[C@H]2C(=C)C(=O)O[C@@H]2[C@@H]2O[C@@](O)(C1)C[C@@]2(C)OC,8.5,7.5,–
C=C(C)C(=O)O[C@H]1C/C(C)=C\[C@@]2(c3ccc(O)c(O)c3)C=C(C)[C@@H](O2)[C@H]2OC(=O)C(=C)[C@@H]21,5.7,3.7,–
C=C1C[C@H](OC(=O)C(=C)C)[C@H]2C(=C)C(=O)O[C@@H]2[C@@H]2O[C@@](O)(C1)C[C@@]2(C)O,7.3,6.6,–
C=C1C(=O)O[C@H]2[C@H]1[C@@H](OC(=O)/C(C)=C/C)C/C(C)=C\[C@@]1(OC)C=C(C)[C@H]2O1,9.7,5,–

# From ChEMBL document CHEMBL5137135, “Highly Oxidized Germacranolides from Elephantopus tomentosus and the Configurational Revision of Some Previously Reported Analogues” (J Nat Prod, 2022)
